Measured values from DBAASP.
Converted amounts (≈) assume the structure as drawn. Each block holds one molecule with its values, some of them ahead of it.

Key:
Experiment in all cases: ≥ marks a high value that may be exact or a test limit, other limits are often not marked, values filed in µg/mL are converted to µM
Escherichia coli L361 = test system: Escherichia coli L361
[1] = test system: Staphylococcus aureus NCTC 6571
[2] = test system: Salmonella enterica subsp. enterica serovar Salford IMVS 1710
Bacillus cereus ACM 446 = test system: Bacillus cereus ACM 446
Pseudomonas fluorescens = test system: Pseudomonas fluorescens
[3] = test system: Listeria monocytogenes NCTC 7973
Escherichia coli O9 = test system: Escherichia coli O9
[4] = test system: Pseudomonas aeruginosa ATCC 27853
[5] = test system: Escherichia coli ATCC 35218
Escherichia coli UTI89 = test system: Escherichia coli UTI89
[6] = test system: Escherichia coli ATCC 25922
[7] = test system: Klebsiella pneumoniae ATCC 700603
[8] = test system: Klebsiella pneumoniae NDM-1
[9] = test system: Pseudomonas aeruginosa PAO1
Vibrio cholerae = test system: Vibrio cholerae
Enterobacter cloacae = test system: Enterobacter cloacae
Klebsiella pneumoniae = test system: Klebsiella pneumoniae
[10] = test system: Enterococcus faecium 5F-10
[11] = test system: Proteus mirabilis ATCC 35659
[12] = test system: Bacillus cereus ATCC 14579
[13] = test system: Salmonella enterica ATCC H9812
[14] = test system: Staphylococcus aureus ATCC 29213
[15] = test system: Bacillus subtilis ATCC 6051
[16] = test system: Bacillus amyloliquefaciens ATCC 23842
[17] = test system: Staphylococcus aureus 215
[18] = test system: Enterococcus faecium 4W-9
Staphylococcus aureus MR = test system: Staphylococcus aureus MR
Enterococcus faecalis A4 = test system: Enterococcus faecalis A4
[19] = test system: Enterococcus faecalis 1F-1
[20] = test system: Bacillus licheniformis ATCC 14580
Cryptococcus neoformans = test system: Cryptococcus neoformans
Escherichia coli = test system: Escherichia coli
Pseudomonas aeruginosa = test system: Pseudomonas aeruginosa
Vibrio alginolyticus = test system: Vibrio alginolyticus
Staphylococcus aureus = test system: Staphylococcus aureus
Bacillus subtilis = test system: Bacillus subtilis
Vibrio parahaemolyticus = test system: Vibrio parahaemolyticus
[21] = test system: Staphylococcus epidermidis
Aeromonas hydrophila = test system: Aeromonas hydrophila
Shigella flexneri = test system: Shigella flexneri
Bacillus cereus = test system: Bacillus cereus
Candida albicans = test system: Candida albicans
[22] = test system: Klebsiella pneumoniae ATCC 43816
[23] = test system: Escherichia coli NCTC 10418
[24] = test system: Staphylococcus aureus ATCC 12493
[25] = test system: Staphylococcus aureus NCTC 10788
[26] = test system: Enterococcus faecalis NCTC 12697
[27] = test system: Candida albicans NCYC 1467

MIC (Escherichia coli L361): ≥ 50 µM
MIC [1]: ≥ 100 µM
MIC [2]: ≥ 100 µM
MIC (Bacillus cereus ACM 446): ≥ 100 µM
MIC (Pseudomonas fluorescens): ≥ 100 µM
MIC [3]: ≥ 40 µM
MIC (Escherichia coli O9): ≥ 60 µM
SMILES: CC[C@H](C)[C@H](NC(=O)[C@H](CO)NC(=O)[C@@H]1CCCN1C(=O)[C@H](C)NC(=O)CNC(=O)[C@H](CC(C)C)NC(=O)[C@H](CCCCN)NC(=O)[C@@H](N)CCCCN)C(=O)N[C@H](C(=O)N[C@@H](CS)C(=O)N[C@H](C(=O)N[C@@H](CCCN=C(N)N)C(=O)N[C@@H](CCCN=C(N)N)C(=O)N[C@@H](C)C(=O)N[C@@H](Cc1ccccc1)C(=O)N[C@@H](C)C(=O)O)C(C)C)[C@@H](C)O [KKLGAPSITCVRRAFA]

MIC [4]: 2 µM (≈ 5.19 µg/mL)
MIC [5]: 2 µM (≈ 5.19 µg/mL)
MIC (Escherichia coli UTI89): 2 µM (≈ 5.19 µg/mL)
MIC [6]: 2 µM (≈ 5.19 µg/mL)
MIC [7]: 2 µM (≈ 5.19 µg/mL)
MIC [8]: 2.83 µM (≈ 7.34 µg/mL)
MIC [9]: 2 µM (≈ 5.19 µg/mL)
MIC (Enterobacter cloacae): 4 µM (≈ 10.4 µg/mL)
MIC (Klebsiella pneumoniae): 2 µM (≈ 5.19 µg/mL)
SMILES: CC[C@H](C)[C@H](NC(=O)[C@@H](NC(=O)[C@@H]1CCCN1C(=O)[C@H](CO)NC(=O)[C@H](CC(C)C)NC(=O)[C@H](CCCCN)NC(=O)[C@H](CCCCN)NC(=O)[C@H](Cc1ccccc1)NC(=O)[C@H](CC(C)C)NC(=O)[C@H](CCCCN)NC(=O)[C@H](CCCCN)NC(=O)[C@H](CC(C)C)NC(=O)[C@H](CCCCN)NC(=O)[C@H](CCCCN)NC(=O)[C@H](CCCN=C(N)N)NC(=O)[C@@H](N)Cc1ccccc1)C(C)C)C(=O)N1CCC[C@H]1C(=O)N[C@@H](CC(C)C)C(=O)N[C@@H](CC(C)C)C(=O)N[C@@H](CCCCN)C(=O)N[C@@H](CC(C)C)C(=O)NCC(N)=O [FRKKLKKLFKKLSPVIPLLKLG]
MIC (Vibrio cholerae): 4 µM (≈ 10.4 µg/mL)

MIC [10]: ≥ 172 µM
MIC [11]: ≥ 172 µM
MIC [12]: ≥ 172 µM
MIC [13]: ≥ 172 µM
MIC [6]: 85.8 µM (≈ 64 µg/mL)
MIC [14]: > 172 µM
MIC [9]: > 172 µM
MIC [15]: ≥ 172 µM
MIC [16]: ≥ 172 µM
MIC [17]: ≥ 172 µM
MIC [18]: ≥ 172 µM
MIC (Staphylococcus aureus MR): ≥ 172 µM
MIC (Enterococcus faecalis A4): ≥ 172 µM
MIC [19]: ≥ 172 µM
MIC [20]: ≥ 172 µM
SMILES: CC(C)C[C@H](NC(=O)[C@H](CC(C)C)NC(=O)[C@@H](N)CCC(=O)O)C(=O)N[C@@H](CO)C(=O)N[C@@H](C)C(=O)N[C@H](C(=O)N[C@@H](CC(=O)O)C(=O)O)C(C)C [ELLSAVD]

MIC (Cryptococcus neoformans): 17.7 µM (≈ 58.5 µg/mL)
MIC (Escherichia coli): > 50 µM
MIC (Pseudomonas aeruginosa): > 50 µM
MIC (Vibrio alginolyticus): ≥ 50 µM
MIC (Staphylococcus aureus): > 50 µM
MIC (Bacillus subtilis): ≥ 35.4 µM
MIC [21]: ≥ 50 µM
MIC (Pseudomonas fluorescens): ≥ 50 µM
MIC (Aeromonas hydrophila): ≥ 50 µM
MIC (Shigella flexneri): ≥ 50 µM
MIC (Bacillus cereus): ≥ 50 µM
MIC (Candida albicans): > 50 µM
SMILES: CSCC[C@H](NC(=O)[C@H](CCCCN)NC(=O)[C@H](CCC(N)=O)NC(=O)[C@H](CCSC)NC(=O)[C@H](CC(N)=O)NC(=O)[C@H](CCCN=C(N)N)NC(=O)[C@H](CC(N)=O)NC(=O)[C@H](Cc1ccc(O)cc1)NC(=O)[C@H](CCCCN)NC(=O)[C@H](Cc1ccc(O)cc1)NC(=O)[C@H](CC(=O)O)NC(=O)[C@H](CCCCN)NC(=O)[C@H](Cc1c[nH]c2ccccc12)NC(=O)[C@H](C)NC(=O)[C@H](CCC(N)=O)NC(=O)[C@H](CCCN=C(N)N)NC(=O)[C@H](C)NC(=O)CNC(=O)[C@@H](N)CCCCN)C(=O)N[C@@H](CC(N)=O)C(=O)N[C@@H](CCC(N)=O)C(=O)NCC(=O)N[C@@H](Cc1ccc(O)cc1)C(=O)NCC(=O)N[C@@H](CCC(N)=O)C(=O)N[C@@H](CCC(N)=O)C(=O)NCC(=O)NCC(=O)O [KGARQAWKDYKYNRNMQKMNQGYGQQGG]
MIC (Vibrio parahaemolyticus): ≥ 50 µM

MIC [4]: 4 µM (≈ 11.8 µg/mL)
MIC [22]: 8 µM (≈ 23.5 µg/mL)
MIC [23]: 4 µM (≈ 11.8 µg/mL)
MIC [24]: 2 µM (≈ 5.88 µg/mL)
MIC [25]: 2 µM (≈ 5.88 µg/mL)
MIC (Staphylococcus aureus): 4 µM (≈ 11.8 µg/mL)
MIC [26]: ≥ 32 µM
MIC [27]: 2 µM (≈ 5.88 µg/mL)
SMILES: CC[C@H](C)[C@H](NC(=O)[C@H](CO)NC(=O)[C@H](CCCCN)NC(=O)[C@H](Cc1c[nH]c2ccccc12)NC(=O)[C@H](CC(C)C)NC(=O)[C@H](C)N)C(=O)N[C@@H](CC(C)C)C(=O)N[C@@H](CCCCN)C(=O)N[C@@H](CC(N)=O)C(=O)N[C@H](C(=O)NCC(=O)N[C@@H](CCCCN)C(=O)N[C@@H](C)C(=O)N[C@@H](C)C(=O)NCC(=O)N[C@@H](CCCCN)C(=O)N[C@@H](C)C(=O)N[C@H](C(=O)N[C@@H](CC(C)C)C(=O)N[C@@H](CC(N)=O)C(=O)N[C@@H](C)C(=O)N[C@H](C(=O)N[C@H](C(=O)N[C@@H](CC(=O)O)C(=O)N[C@@H](CCSC)C(=O)N[C@H](C(=O)N[C@@H](CC(N)=O)C(=O)N[C@@H](CCC(N)=O)C(N)=O)C(C)C)[C@@H](C)O)C(C)C)C(C)C)C(C)C [ALWKSILKNVGKAAGKAVLNAVTDMVNQ]
